Laboratory results from patent publication US11299715B2, “Use of iNOS inhibitors to increase viral yield in culture” (priority 2013, dated 2022).

Legend:
wtHSV-1 KOS strain = wtHSV-1 KOS strain propagation in 293, HeLa and Vero cells with ATA; type: cell-based, HSV-1
Excerpt: (§1) The wtHSV-1 KOS strain and the ICP27-deficient derivatives of the wtHSV-1 KOS strain: vectors d27-1 (Rice and Knipe, J. Virol. (1990) 64:1704-1715), rHSV-rep2/cap2 and rHSV-EGFP (Kang et al., Gene Ther. (2009) 16:229-239) and their producer ICP27-complementing V27 cell line were obtained from AGTC (Alachua, Fla.). The wtHSV-1 MacIntyre strain, purchased from Advanced Biotechnologies Inc. (ABI, Columbia Md.) and wtHSV-1 KOS strain were propagated in Vero, 293 or HeLa cell lines. Infectious vector particles were harvested 72 hr postinfection by recovering culture supernatant. The titers of HSV-1 stocks in DNase resistant particles/ml (DRP/ml) were determined by Taqman assay. Viral genomes within crude culture medium were quantified via treatment in the presence of DNase I (50 U/ml final; Promega) at 37° C. for 60 min, followed by proteinase K (Invitrogen) digestion (1 U/ml) at 50° C. for 60 min, and then denatured at 95° C. for 30 min. Linearized plasmid pZero 195 UL36 (obtained from AGTC, Inc., Alachua, Fla.) was used to generate standard curves.
(§2) ATA (Sigma-A1895 Aurintricarboxylic acid practical grade, ≥85% (titration), powder) stock solution was generated as 500 μM concentration in 100 mM sodium bicarbonate water solution. ATA stock solution was further diluted in DMEM+/−10% fetal bovine serum (FBS, Hyclone, Waltham, Mass.) into concentration ranges of […] ATA (8.5-21 μgATA/ml). The HSV-1 infection at multiplicity of infection of 0.15 (MOI=0.15) (typically 6×10^5 cells in a 6-well plate) was performed in 40% (⅖ vol) of the total final media volume for 1-2 hrs and the remaining media (60% or ⅗ of the total final volume) was added during the dilution step. The cells were then incubated 72 hours and supernatant harvested to perform forming units per milliliter (PFU/ml) and DRP/ml titer assays.
Supernatants containing virus were harvested after three days as described above. […] Finally, ATA also appeared to inhibit both types of HSV-1 viruses in HeLa cells. Two-way ANOVA; Bonferroni test; −ATA vs. +ATA: ***: p<0.001, ns: p>0.05; n=4 independent experiments.
In order to illuminate the ATA mechanism of action by human genome array and the fact that Vero and V27 are monkey-derived cell lines, wtHSV-1 propagation was tested in several human cell lines (FIGS. 4A-4B). A propagation of two wild type HSV-1 (wtHSV-1) strains, KOS and McIntyre, were compared in three cell lines: human embryonic kidney 293 (293 cells), human cervical cancer HeLa cells and African green monkey kidney epithelial Vero cells. The experiments were carried out in 10% FBS-containing media following the ATA I protocol scheme, where 50 μM ATA was supplemented during the infection step and further diluted to 20 μM ATA concentration (see Material and Methods).

[1] = SABiosciences (QIAGEN) Jak-Stat RT-PCR Microarray in 293 cells; type: cell-based, human; conditions: listed as printed as NOS1, 240911_at
Experimental: 6×10e5 293 cells (from AGTC) were infected with wtHSV-1 McIntyre strain at MOI 1 in the presence of DMEM & 10% FBS with or without 50 uM ATA and 1-2 hours and diluted to 40% with DMEM & 10% FBS (final ATA concentration of 20 uM). Triplicate total RNA samples were harvested 24 hrs later using Qiagen RNeasy mini kit and DNase treated on the column and eluted. Eluate RNA triplicate samples were combined and photospectrometer O.D. readings were performed on the eluate at 260 and 280 nm to determine concentration. Sample RNA was converted into template cDNA using SABiosciences RT2 first strand kit. The cDNA was then used in the Human JAK/STAT Signaling Pathway PCR Array (PAHS-039A).

[2] = system: rHSV-1 d27-1 (d27-1) vector; experiment: ATA-HSV protocol: rHSV-1 d27-1 vector yield in V27 cell supernatants; type: cell-based, HSV-1
Excerpt: as §1, §2
In order to test whether ATA could increase the rHSV-1 d27-1 (d27-1) vector yield in V27 cells, ATA was applied to the media during the infection (Step 1) or dilution steps (Step 2) (FIG. 2A). The d27-1 infection at MOI=0.15 was performed in ⅖ of the final media volume and the remaining ⅗ of the media was added during dilution step.
In order to determine which concentrations and conditions for ATA addition have impact on HSV yields, the following experiments were conducted. ATA at varying concentrations was added to V27 cultures infected with the HSV-1 d27-1 vectors in either six-well plates (FIG. 2B) or T150 flasks (FIG. 2C) in two steps as follows. In Step 1 of the protocol, V27 cells were infected with 0.15 MOI of the rHSV vector in ⅖ of the final volume of DMEM with 10% FBS and 0-60 μM ATA concentrations. Cells were cultured for 1-2 hours at 37° C. to complete Step 1. In Step 2, the concentration of ATA was reduced to a range between 12-24 μM by the addition of ⅗ of final media volume. Cells were cultured for 70-74 hours at 37° C. and the supernatant harvested. Viral titers were expressed as Dnase Resistant Particles (DRP/ml) or Plaque Forming Units (pfu/ml) per ml and were determined as described above.
In this experiment, V27 cells were seeded into six well plates the day prior to infection at 6×10^5 cells/well. HSV 2× infection solution was prepared as follows: HSV-1 d27.1 stock was added to DMEM (no FBS) at 2× titer that the cells would be infected at final MOI 0.15. Several 2×ATA solution combinations were prepared containing either 100 μM or 40 μM ATA in DMEM and without FBS or with 20% FBS.
HSV 2× infection solution was mixed equal volumes of either DMEM−/+20% FBS or desired 2×ATA solution−/+20% FBS, vortexed, and 1 ml of infectious inoculum per well was added in Step 1. If wells contained ATA in Step 1, the concentration was 50 μM and all wells were incubated for 1-2 hrs. In Step 2, additional 1.5 ml of DMEM combinations−/+40 μM ATA and −/+20% FBS were added. If wells contained ATA whether in Step 1 or Step 2, the final ATA concentration was 20 μM. […]

[3] = serum-free media, ATA at Step 2, 20 μM final
[4] = serum-free media, ATA starting at 3 μM at Step 1

O=C(O)C1=CC(=C(c2ccc(O)c(C(=O)O)c2)c2ccc(O)c(C(=O)O)c2)C=CC1=O [ATA, 5-((3-carboxy-4-hydroxyphenyl)(3-carboxy-4-oxo-2,5-cyclohexadien-1-ylidene)methyl)-2-hydroxybenzoic acid]
HSV-1 KOS growth in 293 cells (wtHSV-1 KOS strain; 50 μM ATA at Step 1, 20 μM after Step 2, 293 cells): inhibit
propagation of HSV-1 KOS in HeLa cells (wtHSV-1 KOS strain; 50 μM ATA at Step 1, 20 μM after Step 2, HeLa cells): inhibit
yield of wtHSV-1 KOS in Vero cells (wtHSV-1 KOS strain; 50 μM ATA at Step 1, 20 μM after Step 2, Vero cells, 10% FBS): increased
wtHSV-1 KOS titer in Vero cells (wtHSV-1 KOS strain; 50 μM ATA at infection, diluted to 20 μM, 10% FBS, n=4, without ATA 1.7×10^8): 9.1×10^8 DRP/ml
293 or Vero titers with ATA, KOS (wtHSV-1 KOS strain; summary statement): up to 1×10^9 DRP/ml
increase of wt HSV-1 KOS yields (wtHSV-1 KOS strain; summary statement): 1 log
expression, ATA (Jak-Stat RT-PCR Microarray) ([1]; ATA alone): 1.02
expression, HSV + ATA (Jak-Stat RT-PCR Microarray) ([1]; HSV + ATA, HSV alone 1.71): 1.5
d27-1 titer in supernatant (PFU/ml) ([2]; 50 μM ATA at infection step, 20 μM f.c., 72 h.p.i., control 1.4±0.2×10^7): 1.2±0.3×10^8 PFU/ml
d27-1 titer in supernatant (DRP/ml) ([2]; 50 μM ATA at infection step, 20 μM f.c., 72 h.p.i., control 4.0±0.3×10^7): 3.7±0.2×10^8 DRP/ml
increase of d27-1 titers in supernatant ([2]; 50 μM ATA at infection step, 20 μM f.c., harvest 72 h.p.i.): about 10 times
Cytopathic effect (CPE) at the time of harvest ([2]; 72 hpi, V27 monolayers, 100% CPE in the absence of ATA): 20-60%
HSV titers versus cultures without ATA ([2]; ATA added in Step 1 or Step 2, six-well plates and T150 flasks, 10% FBS): significantly higher
HSV-1 plaque formation or cell lysis in V27 cell monolayers ([2]; ATA treatment): delayed
DRP titer, ATA in serum-free media at dilution step (Step 2) [2, 3]: reduced below control level
PFU/ml titer, ATA in serum-free media at dilution step (Step 2) [2, 3]: below detection
DRP/ml titer, ATA in serum-free media at infection Step 1 [2, 4]: below the detection limit
PFU/ml titer, ATA in serum-free media at infection Step 1 [2, 4]: below the detection limit
d27-1 titers with ATA (DRP/ml) ([2]; summary statement): ≥ 4×10^8 DRP/ml
d27-1 titers with ATA (PFU/ml) ([2]; summary statement): at least 1×10^8 PFU/ml
increase of d27-1 yields in V27 cells supernatants ([2]; summary statement): 3-5 times
